In PubChem BioAssay AID220 (DTP/NCI, 2004) one finds T/C data, which are given here for 13 compounds.

Values joined by “and” are separate entries in the source; they are usually repeats but may differ in a detail not shown here. Equal values may be shown once. Records with an inconclusive call do not appear.

The assay concerns CD8F1 mice, subcutaneous mammary adenocarcinoma, T/C%. In words: NCI In Vivo Anticancer Drug Screen. Data for tumor model Mammary Adenocarcinoma CD8F1 (subcutaneous) in CD8F1. Conditions: higher = larger tumour. The method, boiled down:
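Mice carrying transplanted tumors received test compound, and survival or tumor size was recorded. Each value is the treated-group measurement divided by the corresponding measurement in vehicle-dosed controls.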

[1] abbreviates: endpoint: median tumor weight (est.), dose: 12.5 mg/kg/injection, schedule: Q07DX005 (ip), vehicle: Klucel (hydroxypropylcellulose) (HPC).
Where [2] appears, read: endpoint: median tumor weight (est.), dose: 25.0 mg/kg/injection, schedule: Q07DX005 (ip), vehicle: Klucel (hydroxypropylcellulose) (HPC).
[3] abbreviates: endpoint: median tumor weight (est.), dose: 50.0 mg/kg/injection, schedule: Q07DX005 (ip), vehicle: Klucel (hydroxypropylcellulose) (HPC).
Where [4] appears, read: endpoint: median tumor weight (est.), dose: 100.0 mg/kg/injection, schedule: Q07DX005 (ip), vehicle: Klucel (hydroxypropylcellulose) (HPC).
[5] abbreviates: endpoint: median tumor weight (est.), dose: 25.0 mg/kg/injection, schedule: Q07DX005 (ip), vehicle: saline with Tween-80.
The mark [6] stands for this setting: endpoint: median tumor weight (est.), dose: 50.0 mg/kg/injection, schedule: Q07DX005 (ip), vehicle: saline with Tween-80.
The mark [7] stands for this setting: endpoint: median tumor weight (est.), dose: 100.0 mg/kg/injection, schedule: Q07DX005 (ip), vehicle: saline with Tween-80.

Regarding `CC(=O)N(C)C`, the T/C is 52 % of control (endpoint: median tumor weight change, dose: 225.0 mg/kg/injection, schedule: Q01DX001 (ip), vehicle: saline); 85 % of control (endpoint: median tumor weight change, dose: 450.0 mg/kg/injection, schedule: Q01DX001 (ip), vehicle: saline); 72 % of control and 78 % of control (endpoint: median tumor weight change, dose: 900.0 mg/kg/injection, schedule: Q01DX001 (ip), vehicle: saline).

`OCC1OC(n2cnc3c(NO)ncnc32)C(O)C1O` (stereo not drawn): the T/C is, setting by setting: under setting [1], 104 % of control; under setting [2], 66 % of control; under setting [3], 85 % of control; under setting [4], 91 % of control; (endpoint: median tumor weight (est.), dose: 200.0 mg/kg/injection, schedule: Q07DX005 (ip), vehicle: Klucel (hydroxypropylcellulose) (HPC)) 69 % of control; (endpoint: median tumor weight (est.), dose: 400.0 mg/kg/injection, schedule: Q07DX005 (ip), vehicle: Klucel (hydroxypropylcellulose) (HPC)) 113 % of control.

Regarding `C[C@H](CCC[C@H](C)OS(=O)(=O)c1ccccc1)OS(=O)(=O)c1ccccc1`, the T/C reads like this: under setting [5], 57 % of control; under setting [6], 41 % of control; under setting [7], 57 % of control; (endpoint: median tumor weight (est.), dose: 200.0 mg/kg/injection, schedule: Q07DX005 (ip), vehicle: saline with Tween-80) 39 % of control.

On to `C(COCCOCC1CO1)OCCOCC1CO1` (stereo not drawn), for which the T/C runs as follows: (endpoint: median tumor weight (est.), dose: 12.5 mg/kg/injection, schedule: Q07DX005 (ip), vehicle: saline with Tween-80) 69 % of control; under setting [5], 91 % of control; under setting [6], 68 % of control; under setting [7], 110 % of control; (endpoint: median tumor weight (est.), dose: 400.0 mg/kg/injection, schedule: Q07DX005 (ip), vehicle: saline with Tween-80) 112 % of control.

In the case of `COC(C(=O)C(O)C(C)O)C1Cc2cc3cc(OC4CC(OC(C)=O)C(OC5CC(O)C(OC)C(C)O5)C(C)O4)cc(O)c3c(O)c2C(=O)C1OC1CC(OC2CC(OC3CC(C)(O)C(OC(=O)C(C)C)C(C)O3)C(O)C(C)O2)C(O)C(C)O1` (stereo not drawn), the T/C by setting is: (endpoint: median tumor weight (est.), dose: 0.5 mg/kg/injection, schedule: Q07DX005 (ip), vehicle: saline) 76 % of control; (endpoint: median tumor weight (est.), dose: 1.0 mg/kg/injection, schedule: Q07DX005 (ip), vehicle: saline) 30 % of control; (endpoint: median tumor weight (est.), dose: 2.0 mg/kg/injection, schedule: Q07DX005 (ip), vehicle: saline) 34 % of control.

For `COc1cccc2c1C(=O)c1c(O)c3c(c(O)c1C2=O)CC(O)(/C(C)=N/NC(=O)CCC(=O)N/N=C(\C)C1(O)Cc2c(O)c4c(c(O)c2C(OC2CC(N)C(O)C(C)O2)C1)C(=O)c1c(OC)cccc1C4=O)CC3OC1CC(N)C(O)C(C)O1` (stereo not drawn), the T/C reads like this: (endpoint: median tumor weight (est.), dose: 1.5 mg/kg/injection, schedule: Q07DX005 (ip), vehicle: water) 167 % of control; (endpoint: median tumor weight (est.), dose: 6.0 mg/kg/injection, schedule: Q07DX005 (ip), vehicle: water) 45 % of control; (endpoint: median tumor weight (est.), dose: 12.0 mg/kg/injection, schedule: Q07DX005 (ip), vehicle: water) 17 % of control and 40 % of control; (endpoint: median tumor weight (est.), dose: 24.0 mg/kg/injection, schedule: Q07DX005 (ip), vehicle: water) 7 % of control.

Take `COc1cc(C(=O)c2cocc2C(=O)c2ccc3c(c2)OCO3)cc(OC)c1OC`: the T/C was 92 % of control (endpoint: median tumor weight change, dose: 125.0 mg/kg/injection, schedule: Q01DX001 (ip), vehicle: Klucel (hydroxypropylcellulose) (HPC)); 73 % of control (endpoint: median tumor weight change, dose: 250.0 mg/kg/injection, schedule: Q01DX001 (ip), vehicle: Klucel (hydroxypropylcellulose) (HPC)); 62 % of control (endpoint: median tumor weight change, dose: 500.0 mg/kg/injection, schedule: Q01DX001 (ip), vehicle: Klucel (hydroxypropylcellulose) (HPC)); 40 % of control (endpoint: median tumor weight change, dose: 1000.0 mg/kg/injection, schedule: Q01DX001 (ip), vehicle: Klucel (hydroxypropylcellulose) (HPC)).

Consider `CCN=C=NCCCN(C)C`, for which the T/C runs as follows: (endpoint: median tumor weight change, dose: 3.9 mg/kg/injection, schedule: Q01DX001 (ip), vehicle: saline) 115 % of control; (endpoint: median tumor weight change, dose: 7.81 mg/kg/injection, schedule: Q01DX001 (ip), vehicle: saline) 112 % of control; (endpoint: median tumor weight change, dose: 15.63 mg/kg/injection, schedule: Q01DX001 (ip), vehicle: saline) 92 % of control; (endpoint: median tumor weight change, dose: 31.25 mg/kg/injection, schedule: Q01DX001 (ip), vehicle: saline) 109 % of control; (endpoint: median tumor weight change, dose: 62.5 mg/kg/injection, schedule: Q01DX001 (ip), vehicle: saline) 67 % of control.

Consider `COC(=O)[C@@]12OC[C@]34[C@H]([C@@H](O)[C@@H]1O)[C@@]1(C)CC(=O)C(O)=C(C)[C@@H]1C[C@H]3OC(=O)[C@H](OC(=O)/C=C(\C)C(C)C)[C@@H]24`, for which the T/C was 99 % of control (endpoint: median tumor weight (est.), dose: 0.25 mg/kg/injection, schedule: Q07DX005 (ip), vehicle: saline + alcohol); 92 % of control (endpoint: median tumor weight (est.), dose: 0.5 mg/kg/injection, schedule: Q07DX005 (ip), vehicle: saline + alcohol); 104 % of control (endpoint: median tumor weight (est.), dose: 1.0 mg/kg/injection, schedule: Q07DX005 (ip), vehicle: saline + alcohol); 85 % of control (endpoint: median tumor weight change, dose: 1.0 mg/kg/injection, schedule: Q01DX001 (ip), vehicle: saline + alcohol); 81 % of control (endpoint: median tumor weight change, dose: 2.0 mg/kg/injection, schedule: Q01DX001 (ip), vehicle: saline + alcohol); 93 % of control (endpoint: median tumor weight change, dose: 4.0 mg/kg/injection, schedule: Q01DX001 (ip), vehicle: saline + alcohol).

For `O=[N+]([O-])O.[Ga]`, the T/C is 120 % of control (endpoint: mean tumor weight, dose: 75.0 mg/kg/injection, schedule: Q01DX009 (ip), vehicle: saline); 94 % of control (endpoint: median tumor weight (est.), dose: 6.25 mg/kg/injection, schedule: Q07DX005 (ip), vehicle: saline); 114 % of control (endpoint: median tumor weight (est.), dose: 12.5 mg/kg/injection, schedule: Q07DX005 (ip), vehicle: saline); 91 % of control (endpoint: median tumor weight (est.), dose: 25.0 mg/kg/injection, schedule: Q04DX005 (ip), vehicle: saline); 120 % of control (endpoint: median tumor weight (est.), dose: 25.0 mg/kg/injection, schedule: Q07DX004 (ip), vehicle: saline); 120 % of control (endpoint: median tumor weight (est.), dose: 25.0 mg/kg/injection, schedule: Q07DX005 (ip), vehicle: saline). Besides, the T/C (endpoint: median tumor weight (est.), dose: 50.0 mg/kg/injection, schedule: Q07DX004 (ip), vehicle: saline) is 184 % of control and the T/C (endpoint: median tumor weight (est.), dose: 100.0 mg/kg/injection, schedule: Q04DX005 (ip), vehicle: saline) is 153 % of control.

Regarding `CC(=O)CC(c1ccccc1)c1c(O)c2ccccc2oc1=O` (stereo not drawn), the T/C by setting is: (endpoint: median tumor weight change, dose: 0.01 mg/kg/injection, schedule: Q01DX001 (ip), vehicle: Klucel (hydroxypropylcellulose) (HPC)) 183 % of control; (endpoint: median tumor weight change, dose: 0.02 mg/kg/injection, schedule: Q01DX001 (ip), vehicle: Klucel (hydroxypropylcellulose) (HPC)) 157 % of control; (endpoint: median tumor weight change, dose: 0.05 mg/kg/injection, schedule: Q01DX001 (ip), vehicle: Klucel (hydroxypropylcellulose) (HPC)) 196 % of control; (endpoint: median tumor weight change, dose: 0.1 mg/kg/injection, schedule: Q01DX001 (ip), vehicle: Klucel (hydroxypropylcellulose) (HPC)) 203 % of control; (endpoint: median tumor weight change, dose: 0.2 mg/kg/injection, schedule: Q01DX001 (ip), vehicle: Klucel (hydroxypropylcellulose) (HPC)) 192 % of control.

`COc1ccc2c(c1)CCC(c1ccccc1)=C2c1ccc(OCCN2CCCC2)cc1`: the T/C was 119 % of control (endpoint: median tumor weight (est.), dose: 6.25 mg/kg/injection, schedule: Q07DX005 (ip), vehicle: Klucel (hydroxypropylcellulose) (HPC)); 99 % of control and 103 % of control under setting [1]; 92 % of control and 111 % of control under setting [2]; 77 % of control and 80 % of control under setting [3]; 75 % of control and 95 % of control under setting [4].

`CCC12C[N+]3([O-])CCc4c([nH]c5ccccc45)C(C(=O)OC)(c4cc5c(cc4OC)N(C)C4C(O)(C(=O)OC)C(OC(C)=O)C6(CC)C=CCN7CCC54C76)CC(C3)C1O2` (stereo not drawn): the T/C is 199 % of control (endpoint: median tumor weight change, dose: 6.25 mg/kg/injection, schedule: Q01DX001 (ip), vehicle: water); 73 % of control (endpoint: median tumor weight change, dose: 12.5 mg/kg/injection, schedule: Q01DX001 (ip), vehicle: water); 87 % of control (endpoint: median tumor weight change, dose: 25.0 mg/kg/injection, schedule: Q01DX001 (ip), vehicle: water); 92 % of control (endpoint: median tumor weight change, dose: 50.0 mg/kg/injection, schedule: Q01DX001 (ip), vehicle: water); 81 % of control (endpoint: median tumor weight change, dose: 100.0 mg/kg/injection, schedule: Q01DX001 (ip), vehicle: water).
